Drawing on PubChem BioAssay AID328 (DTP/NCI, 2004), this text covers T/C for 19 molecules.

The test system of this test is BDF1 mice, P388 leukemia ip, median survival T/C. Put plainly: NCI In Vivo Anticancer Drug Screen. Data for tumor model P388 Leukemia (intraperitoneal) in B6D2F1 (BDF1) mice. The following applies: endpoint: median survival time, higher = longer survival. In outline:
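Antitumour effect was judged in vivo: survival in drug-treated mice, normalised to that of vehicle-dosed controls, gives the reported T/C.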

[1] abbreviates: dose: 400.0 mg/kg/injection, schedule: Q04DX003 (ip), vehicle: saline.
The mark [2] stands for this setting: dose: 50.0 mg/kg/injection, schedule: Q04DX003 (ip), vehicle: saline with Tween-80.
Setting [3] is: dose: 100.0 mg/kg/injection, schedule: Q04DX003 (ip), vehicle: saline with Tween-80.
Where [4] appears, read: dose: 200.0 mg/kg/injection, schedule: Q04DX003 (ip), vehicle: saline with Tween-80.
Setting [5] is: dose: 400.0 mg/kg/injection, schedule: Q04DX003 (ip), vehicle: saline with Tween-80.
The mark [6] stands for this setting: dose: 3.13 mg/kg/injection, schedule: Q01DX009 (ip), vehicle: saline with Tween-80.
The mark [7] stands for this setting: dose: 6.25 mg/kg/injection, schedule: Q01DX009 (ip), vehicle: saline with Tween-80.
Where [8] appears, read: dose: 25.0 mg/kg/injection, schedule: Q01DX009 (ip), vehicle: saline with Tween-80.
Setting [9] is: dose: 50.0 mg/kg/injection, schedule: Q01DX009 (ip), vehicle: saline with Tween-80.
Where [10] appears, read: dose: 100.0 mg/kg/injection, schedule: Q01DX009 (ip), vehicle: saline with Tween-80.
Where [11] appears, read: dose: 200.0 mg/kg/injection, schedule: Q01DX009 (ip), vehicle: saline with Tween-80.
Setting [12] is: dose: 12.5 mg/kg/injection, schedule: Q01DX009 (ip), vehicle: saline with Tween-80.
Where [13] appears, read: dose: 400.0 mg/kg/injection, schedule: Q01DX009 (ip), vehicle: saline with Tween-80.

“And” between values parts separate entries of the source, which are not always exact repeats. Identical values can stand only once. Inconclusive results and toxic doses are left out.

For `O.O.O=C(CC(=O)C(F)(F)F)C(F)(F)F.O=C(CC(=O)C(F)(F)F)C(F)(F)F.[Ni]`, the T/C (dose: 200.0 mg/kg/injection, schedule: Q01DX001 (ip), vehicle: Klucel (hydroxypropylcellulose) (HPC)) was 104 % of control.

Regarding `CC(=O)Nc1onc(C)c1[N+](=O)[O-]`, the T/C is 100 % of control (dose: 100.0 mg/kg/injection, schedule: Q01DX009 (ip), vehicle: saline); 104 % of control (dose: 100.0 mg/kg/injection, schedule: Q04DX003 (ip), vehicle: saline); 100 % of control (dose: 200.0 mg/kg/injection, schedule: Q01DX009 (ip), vehicle: saline); 109 % of control (dose: 200.0 mg/kg/injection, schedule: Q04DX003 (ip), vehicle: saline); 104 % of control (dose: 400.0 mg/kg/injection, schedule: Q01DX009 (ip), vehicle: saline); 109 % of control under setting [1].

`O=c1oc2ccccc2c2c1C(c1ccccc1)C=C(c1ccccc1)O2` (stereo not given): the T/C reads like this: under setting [2], 96 % of control; under setting [3], 91 % of control; under setting [4], 91 % of control; under setting [5], 95 % of control.

Take `CN(C)CCN1C(=O)c2cccc3cc([N+](=O)[O-])cc(c23)C1=O`: the T/C under setting [6] was 160 % of control and the T/C under setting [7] is 215 % of control.

On to `COc1cc(C=Nc2ccc(-c3nc(C)sc3C)cc2)ccc1N(CCCl)CCCl`, for which the T/C by setting is: (dose: 16.5 mg/kg/injection, schedule: Q04DX003 (ip), vehicle: Klucel (hydroxypropylcellulose) (HPC)) 300 % of control; (dose: 25.0 mg/kg/injection, schedule: Q04DX003 (ip), vehicle: Klucel (hydroxypropylcellulose) (HPC)) 231 % of control and 300 % of control; (dose: 37.5 mg/kg/injection, schedule: Q04DX003 (ip), vehicle: Klucel (hydroxypropylcellulose) (HPC)) 300 % of control.

For `N=C(N)SCCCCCCCCCCSC(=N)N`, the T/C reads like this: under setting [8], 97 % of control; under setting [9], 123 % of control.

As for `CN(C)/N=C1\C(=O)N(CCCl)c2cc(Cl)c(Cl)cc21`, the T/C is 97 % of control under setting [9], 99 % of control under setting [10] and 90 % of control under setting [11].

As for `Nc1nc(CCl)nc(Nc2ccccc2)n1`, the T/C reads like this: (dose: 12.5 mg/kg/injection, schedule: Q01DX009 (ip), vehicle: Klucel (hydroxypropylcellulose) (HPC)) 100 % of control; (dose: 25.0 mg/kg/injection, schedule: Q01DX009 (ip), vehicle: Klucel (hydroxypropylcellulose) (HPC)) 98 % of control; (dose: 50.0 mg/kg/injection, schedule: Q01DX009 (ip), vehicle: Klucel (hydroxypropylcellulose) (HPC)) 102 % of control; (dose: 100.0 mg/kg/injection, schedule: Q01DX009 (ip), vehicle: Klucel (hydroxypropylcellulose) (HPC)) 100 % of control.

For the molecule `Nc1nc(=S)c2ncn(C3OC(COC(=O)c4ccc(Cl)cc4)C(OC(=O)c4ccc(Cl)cc4)C3OC(=O)c3ccc(Cl)cc3)c2[nH]1` (stereo not given), the T/C is 118 % of control (dose: 132.0 mg/kg/injection, schedule: Q04DX003 (ip), vehicle: saline with Tween-80); 100 % of control under setting [11]; 122 % of control (dose: 300.0 mg/kg/injection, schedule: Q04DX003 (ip), vehicle: saline with Tween-80).

As for `CCOC(=O)c1c(NC(C)=O)sc2c1CCCC2`, the T/C was 104 % of control under setting [9]; 90 % of control under setting [2]; 100 % of control under setting [10]; 104 % of control under setting [3]; 100 % of control under setting [11]; 100 % of control under setting [4].

Consider `CC1=CC23C(COC(=O)C24CO4)C(C(=O)O)=CC3C1C` (stereo not given), for which the T/C (dose: 0.31 mg/kg/injection, schedule: Q01DX009 (ip), vehicle: Klucel (hydroxypropylcellulose) (HPC)) was 105 % of control; the T/C (dose: 0.63 mg/kg/injection, schedule: Q01DX009 (ip), vehicle: Klucel (hydroxypropylcellulose) (HPC)) was 113 % of control; the T/C (dose: 1.25 mg/kg/injection, schedule: Q01DX009 (ip), vehicle: Klucel (hydroxypropylcellulose) (HPC)) is 102 % of control and 117 % of control.

In the case of `CC(Cl)CN(Cc1cc(O)c(CN(CC(C)Cl)CC(C)Cl)cc1O)CC(C)Cl` (stereo not given), the T/C is, setting by setting: (dose: 100.0 mg/kg/injection, schedule: Q04DX003 (ip), vehicle: Klucel (hydroxypropylcellulose) (HPC)) 118 % of control; (dose: 264.0 mg/kg/injection, schedule: Q04DX003 (ip), vehicle: Klucel (hydroxypropylcellulose) (HPC)) 91 % of control; (dose: 264.0 mg/kg/injection, schedule: Q04DX003 (ip), vehicle: saline) 113 % of control; (dose: 400.0 mg/kg/injection, schedule: Q04DX003 (ip), vehicle: Klucel (hydroxypropylcellulose) (HPC)) 154 % of control; under setting [1], 109 % of control.

Take `CCCCN(CCCC)CC(O)c1cc(-c2ccc(Cl)c(Cl)c2)cc2cc(Cl)ccc12` (stereo not given): the T/C under setting [12] is 99 % of control; the T/C under setting [8] was 99 % of control; the T/C under setting [9] was 92 % of control and 97 % of control.

`C/C=C/CCCCCCCC`: the T/C by setting is: (dose: 100.0 mg/kg/injection, schedule: Q01DX001 (ip), vehicle: saline with Tween-80) 104 % of control; (dose: 200.0 mg/kg/injection, schedule: Q01DX001 (ip), vehicle: saline with Tween-80) 104 % of control; (dose: 400.0 mg/kg/injection, schedule: Q01DX001 (ip), vehicle: saline with Tween-80) 119 % of control.

`O=C(/C=C/c1ccc(Cl)cc1)c1ccc(Cl)cc1`: the T/C was 100 % of control under setting [10], 90 % of control under setting [11] and 90 % of control under setting [13].

`CCOC(=O)c1cc([N+](=O)[O-])c(C)s1`: the T/C is, setting by setting: (dose: 100.0 mg/kg/injection, schedule: Q01DX009 (sc), vehicle: olive oil, sesame oil, peanut oil) 100 % of control; (dose: 100.0 mg/kg/injection, schedule: Q04DX003 (sc), vehicle: olive oil, sesame oil, peanut oil) 95 % of control; (dose: 200.0 mg/kg/injection, schedule: Q01DX009 (sc), vehicle: olive oil, sesame oil, peanut oil) 91 % of control; (dose: 200.0 mg/kg/injection, schedule: Q04DX003 (sc), vehicle: olive oil, sesame oil, peanut oil) 95 % of control; (dose: 400.0 mg/kg/injection, schedule: Q01DX009 (sc), vehicle: olive oil, sesame oil, peanut oil) 100 % of control; (dose: 400.0 mg/kg/injection, schedule: Q04DX003 (sc), vehicle: olive oil, sesame oil, peanut oil) 100 % of control.

In the case of `O=[N+]([O-])c1ccccc1CN1c2ccccc2N=C2c3ccccc3CC21` (stereo not given), the T/C was 116 % of control (dose: 100.0 mg/kg/injection, schedule: Q04DX003 (ip), vehicle: saline sonified); 100 % of control (dose: 200.0 mg/kg/injection, schedule: Q04DX003 (ip), vehicle: saline sonified); 91 % of control (dose: 400.0 mg/kg/injection, schedule: Q04DX003 (ip), vehicle: saline sonified).

For the molecule `Clc1ccc(CNc2ncnc3[nH]ncc23)cc1`, the T/C runs as follows: under setting [6], 91 % of control; under setting [7], 87 % of control; under setting [12], 89 % of control; under setting [8], 105 % of control.

In the case of `O=c1cc(O)ccn1CC(O)c1ccc(Cl)s1` (stereo not given), the T/C is, setting by setting: under setting [10], 101 % of control and 111 % of control; under setting [3], 109 % of control; under setting [11], 92 % of control and 104 % of control; under setting [4], 110 % of control; under setting [13], 108 % of control and 113 % of control; under setting [5], 119 % of control.
